For one assay, the system named is H1299 p53 R273H. As to the kind of experiment: Cell Proliferation Assay (CellTiter-Glo, CTG), H1299 p53 R273H (NClH1299-inducible p53 R273H). It is filed as cell-based. The note with it: Homo sapiens, NCI-H1299, 120 h, NClH1299-inducible p53 R273H cells, 5 days, CellTiter-Glo. The gist of the method: (§1)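 Tet-One inducible p53 Y220C or R273H constructs were stably introduced into NCI-H1299 by lentiviral transduction; NUGC3 was used as is. Cells (250-500 per well) were exposed to compound for 5 days, then CellTiter-Glo was added for 10 min at room temperature and IC50 was calculated from luminescence.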
In general terms: Cellular ATP, detected with luciferase, serves as a proxy for viable cell number.

For a further assay, the target named is p53 Y220C (Homo sapiens, UniProt P04637, Y220C). As to the kind of experiment: Luciferase Reporter Assay (Luc), p53 response element, NClH1299 cells with inducible p53 Y220C. It is filed as cell-based. The note with it: luciferase reporter, NClH1299 inducible p53 Y220C, 6 hour; for AC50: read-out: Luc P53 Y220C AC50. The gist of the method:
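24 h dox pre-induction (0.5 ug/mL), then 6 h compound; One-Glo luminescent read.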
Background: A reporter such as luciferase makes a cellular process visible.

Assay [1] concerns the target T1, p53 Y220C mutant protein (amino acid residues 94-293) (Homo sapiens, UniProt P04637, Y220C).
T1 construct: p53 Y220C mutant protein (amino acid residues 94-293)
As to the kind of experiment: Surface Plasmon Resonance (SPR) assay, Kd_kinetic. As to conditions: SPR; p53 Y220C; read-out: SPR P53 Y220C KD kinetic. In kind it is binding. The gist of the method: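 Kinetic dissociation constants derived by 1:1 model fit of SPR data acquired at 16 or 20 °C, pH 7.5 Tris/NaCl running buffer with 1% DMSO.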

In another assay the test system is H1299 p53 Y220C. As to the kind of experiment: Cell Proliferation Assay (CellTiter-Glo, CTG), H1299 p53 Y220C (NClH1299-inducible p53 Y220C). It is filed as cell-based. As to conditions: Homo sapiens, NCI-H1299, 120 h, NClH1299-inducible p53 Y220C cells, 5 days, CellTiter-Glo. The gist of the method:
as §1

The next assay concerns NUGC3 p53 Y220C. As to the kind of experiment: Cell Proliferation Assay (CellTiter-Glo, CTG), NUGC3 p53 Y220C. In kind it is cell-based. As to conditions: Homo sapiens, NUGC-3, 120 h, NUGC3 cells, 5 days, CellTiter-Glo. The method, boiled down: as §1

Molecules are shown by their SMILES.

T1 sequence (P04637 94-293, stated change not applied): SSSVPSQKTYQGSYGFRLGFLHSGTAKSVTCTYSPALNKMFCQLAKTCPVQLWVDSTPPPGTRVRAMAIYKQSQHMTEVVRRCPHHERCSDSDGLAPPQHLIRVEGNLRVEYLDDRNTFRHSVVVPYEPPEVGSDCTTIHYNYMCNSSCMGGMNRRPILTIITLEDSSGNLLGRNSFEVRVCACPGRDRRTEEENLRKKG

By IC50 is commonly meant the concentration that gives 50% inhibition. For orientation: AC50 means the concentration at which the activity in the assay is half-maximal. As a reminder, the Emax is the size of the effect at its maximum, as opposed to the concentration needed. Usually Kd stands for the constant that tells how readily two partners part at equilibrium. For the compound `O=C(NC[C@H]1COCCO1)c1ccc(NCC#Cc2cc3c(N[C@@H]4CCNC[C@@H]4F)cccn3c2SC(F)(F)F)cc1` [Example 369], the half-inhibitory concentration (IC50) in the assay with H1299 p53 R273H is 5000 to 8000 nM; with H1299 p53 Y220C it was under 750 nM; in the assay with NUGC3 p53 Y220C, under 750 nM. At p53 Y220C, the AC50 was under 750 nM. Besides, the Emax at p53 Y220C is over 90%. Moreover, the Kd in assay [1] was under 10 nM.
With `COc1cc(S(C)(=O)=O)ccc1NCC#Cc1cc2c(N[C@@H]3CCNC[C@@H]3F)cccn2c1SC(F)(F)F` [Example 370], the figures for the IC50 in the assay with H1299 p53 R273H, in the assay on H1299 p53 Y220C and in the assay on NUGC3 p53 Y220C were 5000 to 8000 nM, under 750 nM and under 750 nM, respectively. The AC50 on p53 Y220C is under 750 nM. This compound displayed an Emax on p53 Y220C of over 90%. For the same compound, the Kd in assay [1] is under 10 nM.
As to `C[C@@H](O)[C@@H](C)NC(=O)c1ccc(NCC#Cc2cc3c(N[C@@H]4CCN(C)C[C@@H]4F)cccn3c2SC(F)(F)F)cc1` [Example 371], the IC50 in the assay with H1299 p53 R273H is 8000 to 10000 nM; with H1299 p53 Y220C it was under 750 nM; in the assay with NUGC3 p53 Y220C it was under 750 nM. Further, the concentration at half-maximal activity (AC50) on p53 Y220C is under 750 nM. At p53 Y220C, this compound displayed an Emax of over 90%. Further, the Kd in assay [1] was under 10 nM.
For the compound `CC(C)(O)CNC(O)c1ccc(NCC#Cc2cc3c(N[C@@H]4CCNC[C@@H]4F)cccn3c2SC(F)(F)F)cc1` (stereo partly drawn) [Example 372], the IC50 was 8000 to 10000 nM with H1299 p53 R273H, under 750 nM with H1299 p53 Y220C and under 750 nM in the assay on NUGC3 p53 Y220C. Besides, the AC50 on p53 Y220C is under 750 nM. Further, the maximum response (Emax) at p53 Y220C is over 90%. In assay [1], the Kd was under 10 nM.
In the case of `O=C(N[C@H]1C[C@H](O)C1)c1ccc(NCC#Cc2cc3c(N[C@@H]4CCNC[C@@H]4F)cccn3c2SC(F)(F)F)cc1` [Example 373], the IC50 was at least 10000 nM in the assay on H1299 p53 R273H, under 750 nM with H1299 p53 Y220C and under 750 nM in the assay with NUGC3 p53 Y220C. At p53 Y220C, the AC50 was under 750 nM. Besides, at p53 Y220C, the Emax lay within 80 to 90%. For the same compound, the dissociation constant (Kd) in assay [1] is under 10 nM.
As for `COc1cc(C(=O)NCC(C)(C)O)ccc1NCC#Cc1cc2c(N[C@@H]3CCN(C)C[C@@H]3F)cccn2c1SC(F)(F)F` [Example 375], the figures for the IC50 with H1299 p53 R273H, with H1299 p53 Y220C and in the assay on NUGC3 p53 Y220C were 8000 to 10000 nM, under 750 nM and under 750 nM, respectively. The AC50 at p53 Y220C was under 750 nM. For the same compound, the Emax at p53 Y220C was over 90%. In assay [1], the Kd is under 10 nM.
For `C[C@H](O)[C@@H](C)NC(=O)c1ccc(NCC#Cc2cc3c(N[C@@H]4CCN(C)C[C@@H]4F)cccn3c2SC(F)(F)F)cc1` [Example 376], the IC50 with H1299 p53 R273H was at least 10000 nM; with H1299 p53 Y220C, under 750 nM; in the assay on NUGC3 p53 Y220C, under 750 nM. Moreover, on p53 Y220C, the AC50 was under 750 nM. This compound returned an Emax on p53 Y220C of over 90%. The Kd in assay [1] was under 10 nM.
As for `COc1cc(C(=O)N2CC(C)(O)C2)ccc1NCC#Cc1cc2c(N[C@@H]3CCN(C)C[C@@H]3F)cccn2c1SC(F)(F)F` [Example 377], the IC50 with H1299 p53 R273H is 5000 to 8000 nM; with H1299 p53 Y220C, under 750 nM; in the assay with NUGC3 p53 Y220C, under 750 nM. Also, the concentration at half-maximal activity (AC50) at p53 Y220C is under 750 nM. The compound further yielded an Emax on p53 Y220C of over 90%. In addition, in assay [1], the Kd was under 10 nM.
Take `COc1cc(P(C)(C)=O)ccc1NCC#Cc1cn2c(N[C@@H]3CCN(C)C[C@@H]3F)cccc2c1SC(F)(F)F` [Example 378]: the 50% inhibitory concentration (IC50) in the assay on H1299 p53 R273H is at least 10000 nM; in the assay on H1299 p53 Y220C, under 750 nM; with NUGC3 p53 Y220C it was under 750 nM. Also, the AC50 at p53 Y220C was under 750 nM. The compound further came in with an Emax on p53 Y220C of 80 to 90%. For the same compound, in assay [1], the Kd is under 10 nM.
For `COc1cc(P(C)(C)=O)ccc1NCC#Cc1cc2c(N[C@@H]3CCNC[C@@H]3F)cccn2c1SC(F)(F)F` [Example 379], the IC50 in the assay on H1299 p53 R273H is at least 10000 nM; with H1299 p53 Y220C, under 750 nM; with NUGC3 p53 Y220C it was under 750 nM. In addition, the AC50 on p53 Y220C is under 750 nM. This compound came in with an Emax at p53 Y220C of over 90%. The Kd in assay [1] is under 10 nM.
Turning to `CN1CCO[C@@H](CNC(=O)c2ccc(NCC#Cc3cc4c(N[C@@H]5CCN(C)C[C@@H]5F)cccn4c3SC(F)(F)F)cc2)C1` [Example 380], the IC50 in the assay on H1299 p53 R273H was 5000 to 8000 nM; with H1299 p53 Y220C, under 750 nM; in the assay on NUGC3 p53 Y220C, under 750 nM. Also, the AC50 on p53 Y220C is under 750 nM. The Emax at p53 Y220C fell in the range of 80 to 90%. Besides, the equilibrium dissociation constant (Kd) in assay [1] was under 10 nM.
`CNC(=O)c1ccc(OC)c(NCC#Cc2cn3c(N[C@@H]4CCNC[C@@H]4F)cccc3c2SC(F)(F)F)c1` [Example 381]: the figures for the IC50 with H1299 p53 R273H, in the assay on H1299 p53 Y220C and with NUGC3 p53 Y220C were 8000 to 10000 nM, under 750 nM and under 750 nM, respectively. Also, the AC50 on p53 Y220C is under 750 nM. Moreover, on p53 Y220C, the Emax is over 90%. The Kd in assay [1] was under 10 nM.
`CN1CC[C@@H](Nc2cccn3c(SC(F)(F)F)c(C#CCNc4ccc(C(=O)NC[C@H]5CCO5)cc4)cc23)[C@@H](F)C1` [Example 382]: the IC50 is 8000 to 10000 nM with H1299 p53 R273H, under 750 nM with H1299 p53 Y220C and under 750 nM in the assay with NUGC3 p53 Y220C. The AC50 on p53 Y220C was under 750 nM. For the same compound, the Emax at p53 Y220C was over 90%. In assay [1], the Kd was under 10 nM.
For `C[C@H](O)[C@H](C)NC(=O)c1ccc(NCC#Cc2cc3c(N[C@@H]4CCN(C)C[C@@H]4F)cccn3c2SC(F)(F)F)cc1` [Example 383], the IC50 with H1299 p53 R273H was 8000 to 10000 nM; in the assay on H1299 p53 Y220C it was under 750 nM; with NUGC3 p53 Y220C it was under 750 nM. Moreover, the half-maximal activity concentration (AC50) on p53 Y220C was under 750 nM. The same compound came in with an Emax on p53 Y220C of over 90%. Moreover, the Kd in assay [1] is under 10 nM.
With `CN1CC[C@@H](Nc2cccn3c(SC(F)(F)F)c(C#CCNc4ccc(C(=O)NC[C@@H](O)CO)cc4)cc23)[C@@H](F)C1` [Example 384], the concentration for half-maximal inhibition (IC50) in the assay on H1299 p53 R273H was at least 10000 nM; with H1299 p53 Y220C, under 750 nM; with NUGC3 p53 Y220C, under 750 nM. Also, the AC50 on p53 Y220C is under 750 nM. At p53 Y220C, this compound yielded a maximum response (Emax) of over 90%. Besides, the Kd in assay [1] was under 10 nM.
For `CN1CC[C@@H](Nc2cccn3c(SC(F)(F)F)c(C#CCNc4ccc(P(C)(C)=O)cc4)cc23)[C@@H](F)C1` [Example 385], the figures for the IC50 in the assay on H1299 p53 R273H, in the assay on H1299 p53 Y220C and in the assay on NUGC3 p53 Y220C were at least 10000 nM, under 750 nM and under 750 nM, respectively. Also, the half-maximal activity concentration (AC50) on p53 Y220C is under 750 nM. Further, the Emax at p53 Y220C was 80 to 90%. In assay [1], the Kd was under 10 nM.
As for `CNC(=O)c1ccc(NCC#Cc2cc3c(N[C@@H]4CN(C)C[C@@H]4F)cccn3c2SC(F)(F)F)c(OC)c1` [Example 386], the values for the half-inhibitory concentration (IC50) in the assay with H1299 p53 R273H, with H1299 p53 Y220C and with NUGC3 p53 Y220C were at least 10000 nM, under 750 nM and under 750 nM, respectively. In addition, the half-maximal activity concentration (AC50) on p53 Y220C was under 750 nM. Besides, the Emax on p53 Y220C was over 90%. The Kd in assay [1] was under 10 nM.
On to `COc1cc(C(=O)NCC2(O)CC2)ccc1NCC#Cc1cc2c(N[C@@H]3CCNC[C@@H]3F)cccn2c1SC(F)(F)F` [Example 387], for which the IC50 is 5000 to 8000 nM in the assay on H1299 p53 R273H, under 750 nM in the assay with H1299 p53 Y220C and under 750 nM in the assay on NUGC3 p53 Y220C. Further, at p53 Y220C, the half-maximal activity concentration (AC50) is under 750 nM. At p53 Y220C, this compound displayed an Emax of 80 to 90%. In addition, the Kd in assay [1] was under 10 nM.
As to `CN1CCO[C@H](CNC(=O)c2ccc(NCC#Cc3cc4c(N[C@@H]5CCN(C)C[C@@H]5F)cccn4c3SC(F)(F)F)cc2)C1` [Example 388], the IC50 is 5000 to 8000 nM with H1299 p53 R273H, under 750 nM with H1299 p53 Y220C and under 750 nM with NUGC3 p53 Y220C. Further, the AC50 at p53 Y220C was under 750 nM. Also, the Emax at p53 Y220C lay in the range of 80 to 90%. The equilibrium dissociation constant (Kd) in assay [1] was under 10 nM.

Values taken from patent publication US20260374766A1, “METHODS FOR TREATING CANCER” (Antares Therapeutics, Inc., priority 2022, published 2026).
